The target of assay [1] is T1, Fatty acid synthase (Homo sapiens, UniProt P49327). Nature of the assay: inhibition of human FAS-TE enzyme activity – biochemical, kinetic fluorescence intensity, dose response (AID 624326).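 Further: rate of fluorescence rise from hydrolysis of a fluorogenic O-methyl fluorescein ester substrate.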 The assay is classed as functional.
Another assay addresses T2, Protein RecA (Mycobacterium tuberculosis, UniProt P9WHJ3).
T2 sequence (P9WHJ3 whole entry): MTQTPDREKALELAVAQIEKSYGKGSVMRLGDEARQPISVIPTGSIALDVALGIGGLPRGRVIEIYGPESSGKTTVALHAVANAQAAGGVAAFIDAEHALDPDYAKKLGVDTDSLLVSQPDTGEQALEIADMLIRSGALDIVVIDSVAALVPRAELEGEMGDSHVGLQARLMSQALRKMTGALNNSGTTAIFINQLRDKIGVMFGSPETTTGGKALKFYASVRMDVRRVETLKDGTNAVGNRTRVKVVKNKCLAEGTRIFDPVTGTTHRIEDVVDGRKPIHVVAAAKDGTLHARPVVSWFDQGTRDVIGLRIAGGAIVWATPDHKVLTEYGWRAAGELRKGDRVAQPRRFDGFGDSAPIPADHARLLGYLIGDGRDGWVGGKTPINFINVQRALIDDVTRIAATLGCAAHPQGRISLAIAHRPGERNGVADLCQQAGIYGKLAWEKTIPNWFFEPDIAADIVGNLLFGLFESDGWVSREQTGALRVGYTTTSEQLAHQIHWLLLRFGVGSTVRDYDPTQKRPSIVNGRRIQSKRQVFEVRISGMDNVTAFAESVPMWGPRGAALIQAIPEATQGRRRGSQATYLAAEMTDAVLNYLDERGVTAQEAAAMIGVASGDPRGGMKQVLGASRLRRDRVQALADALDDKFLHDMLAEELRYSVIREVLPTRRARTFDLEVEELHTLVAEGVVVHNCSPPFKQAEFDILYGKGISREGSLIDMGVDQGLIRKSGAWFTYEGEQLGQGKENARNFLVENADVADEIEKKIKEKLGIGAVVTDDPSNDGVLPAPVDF
Nature of the assay: Fluorescence Cell-Free Homogeneous Dose Retest to Identify Inhibitors of RecA-Intein Splicing Activity. [Related pubchem assays (depositor defined):AID2097, AID2223, AID489010, AID492950]. It is filed as functional.

In assay [2] the target is T3, Replicative DNA helicase DnaB (Mycobacterium tuberculosis, UniProt P9WMR3).
T3 sequence (P9WMR3 whole entry): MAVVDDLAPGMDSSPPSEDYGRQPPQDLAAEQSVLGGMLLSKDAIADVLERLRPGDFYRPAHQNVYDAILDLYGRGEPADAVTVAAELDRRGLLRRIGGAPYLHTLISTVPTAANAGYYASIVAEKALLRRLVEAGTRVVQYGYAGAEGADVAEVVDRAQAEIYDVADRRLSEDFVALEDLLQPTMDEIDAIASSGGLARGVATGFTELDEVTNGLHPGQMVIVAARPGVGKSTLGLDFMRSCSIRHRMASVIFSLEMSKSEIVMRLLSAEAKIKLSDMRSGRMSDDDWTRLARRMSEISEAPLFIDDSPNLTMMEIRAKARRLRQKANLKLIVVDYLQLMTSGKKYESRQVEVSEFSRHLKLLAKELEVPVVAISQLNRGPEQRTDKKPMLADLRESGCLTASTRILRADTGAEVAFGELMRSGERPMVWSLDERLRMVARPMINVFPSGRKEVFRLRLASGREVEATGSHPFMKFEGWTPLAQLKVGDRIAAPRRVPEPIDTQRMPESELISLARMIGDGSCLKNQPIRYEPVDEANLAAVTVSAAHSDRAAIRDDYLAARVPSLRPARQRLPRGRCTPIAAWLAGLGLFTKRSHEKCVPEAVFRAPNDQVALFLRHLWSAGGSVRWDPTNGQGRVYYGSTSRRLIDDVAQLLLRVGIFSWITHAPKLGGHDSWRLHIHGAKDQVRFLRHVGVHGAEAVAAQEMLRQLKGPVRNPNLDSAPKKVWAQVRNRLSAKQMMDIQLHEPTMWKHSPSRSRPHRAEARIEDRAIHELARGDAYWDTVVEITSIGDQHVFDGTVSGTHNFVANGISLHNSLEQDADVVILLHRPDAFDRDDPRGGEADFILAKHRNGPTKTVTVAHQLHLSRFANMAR
Nature of the assay: DnaB intein splicing inhibitors, dose response, biochemical, cell-free fluorescence (AID 449749). It is filed as functional.

Assay [3] deals with T1, Fatty acid synthase. As to the kind of experiment: inhibition of human FAS-TE enzyme activity – biochemical, endpoint fluorescence intensity, uHTS hits, dose response (AID 624327).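 Further: fluorescence from hydrolysis of an O-methyl fluorescein acyl ester substrate by the enzyme.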 The assay is classed as functional.
In assay [4] the target is T4, Polyadenylate-binding protein 1 (Homo sapiens, UniProt P11940). As to the kind of experiment: MLLE binding blockers, Cy5 peptide tracer – biochemical, fluorescence polarization, Cy5-PAM2 peptide, secondary, miRNA deadenylation inhibitor project, dose response (AID 602260). It is filed as functional. Conditions: read-out: IC50_Mean. In general terms: Polarisation of emitted light reports the rotation of a fluorescent probe.

In assay [5] the target is T4, Polyadenylate-binding protein 1. As to the kind of experiment: MLLE domain peptide-binding blockers, IC50 – biochemical, fluorescence polarization, FITC-PAM2 peptide, dose response (AID 602259). The assay is classed as functional. Particulars: read-out: IC50_Mean.
The nature of assay [6]: blockers of HIV-1 envelope-mediated cell-cell fusion – cherry-pick, dose response (AID 652057). It is filed as functional, cell-based.

The text below walks through data of ChEMBL document CHEMBL1201862, “PubChem BioAssay data set” (2004).

Activity calls are given as the source filed them.

T1 sequence (P49327 whole entry): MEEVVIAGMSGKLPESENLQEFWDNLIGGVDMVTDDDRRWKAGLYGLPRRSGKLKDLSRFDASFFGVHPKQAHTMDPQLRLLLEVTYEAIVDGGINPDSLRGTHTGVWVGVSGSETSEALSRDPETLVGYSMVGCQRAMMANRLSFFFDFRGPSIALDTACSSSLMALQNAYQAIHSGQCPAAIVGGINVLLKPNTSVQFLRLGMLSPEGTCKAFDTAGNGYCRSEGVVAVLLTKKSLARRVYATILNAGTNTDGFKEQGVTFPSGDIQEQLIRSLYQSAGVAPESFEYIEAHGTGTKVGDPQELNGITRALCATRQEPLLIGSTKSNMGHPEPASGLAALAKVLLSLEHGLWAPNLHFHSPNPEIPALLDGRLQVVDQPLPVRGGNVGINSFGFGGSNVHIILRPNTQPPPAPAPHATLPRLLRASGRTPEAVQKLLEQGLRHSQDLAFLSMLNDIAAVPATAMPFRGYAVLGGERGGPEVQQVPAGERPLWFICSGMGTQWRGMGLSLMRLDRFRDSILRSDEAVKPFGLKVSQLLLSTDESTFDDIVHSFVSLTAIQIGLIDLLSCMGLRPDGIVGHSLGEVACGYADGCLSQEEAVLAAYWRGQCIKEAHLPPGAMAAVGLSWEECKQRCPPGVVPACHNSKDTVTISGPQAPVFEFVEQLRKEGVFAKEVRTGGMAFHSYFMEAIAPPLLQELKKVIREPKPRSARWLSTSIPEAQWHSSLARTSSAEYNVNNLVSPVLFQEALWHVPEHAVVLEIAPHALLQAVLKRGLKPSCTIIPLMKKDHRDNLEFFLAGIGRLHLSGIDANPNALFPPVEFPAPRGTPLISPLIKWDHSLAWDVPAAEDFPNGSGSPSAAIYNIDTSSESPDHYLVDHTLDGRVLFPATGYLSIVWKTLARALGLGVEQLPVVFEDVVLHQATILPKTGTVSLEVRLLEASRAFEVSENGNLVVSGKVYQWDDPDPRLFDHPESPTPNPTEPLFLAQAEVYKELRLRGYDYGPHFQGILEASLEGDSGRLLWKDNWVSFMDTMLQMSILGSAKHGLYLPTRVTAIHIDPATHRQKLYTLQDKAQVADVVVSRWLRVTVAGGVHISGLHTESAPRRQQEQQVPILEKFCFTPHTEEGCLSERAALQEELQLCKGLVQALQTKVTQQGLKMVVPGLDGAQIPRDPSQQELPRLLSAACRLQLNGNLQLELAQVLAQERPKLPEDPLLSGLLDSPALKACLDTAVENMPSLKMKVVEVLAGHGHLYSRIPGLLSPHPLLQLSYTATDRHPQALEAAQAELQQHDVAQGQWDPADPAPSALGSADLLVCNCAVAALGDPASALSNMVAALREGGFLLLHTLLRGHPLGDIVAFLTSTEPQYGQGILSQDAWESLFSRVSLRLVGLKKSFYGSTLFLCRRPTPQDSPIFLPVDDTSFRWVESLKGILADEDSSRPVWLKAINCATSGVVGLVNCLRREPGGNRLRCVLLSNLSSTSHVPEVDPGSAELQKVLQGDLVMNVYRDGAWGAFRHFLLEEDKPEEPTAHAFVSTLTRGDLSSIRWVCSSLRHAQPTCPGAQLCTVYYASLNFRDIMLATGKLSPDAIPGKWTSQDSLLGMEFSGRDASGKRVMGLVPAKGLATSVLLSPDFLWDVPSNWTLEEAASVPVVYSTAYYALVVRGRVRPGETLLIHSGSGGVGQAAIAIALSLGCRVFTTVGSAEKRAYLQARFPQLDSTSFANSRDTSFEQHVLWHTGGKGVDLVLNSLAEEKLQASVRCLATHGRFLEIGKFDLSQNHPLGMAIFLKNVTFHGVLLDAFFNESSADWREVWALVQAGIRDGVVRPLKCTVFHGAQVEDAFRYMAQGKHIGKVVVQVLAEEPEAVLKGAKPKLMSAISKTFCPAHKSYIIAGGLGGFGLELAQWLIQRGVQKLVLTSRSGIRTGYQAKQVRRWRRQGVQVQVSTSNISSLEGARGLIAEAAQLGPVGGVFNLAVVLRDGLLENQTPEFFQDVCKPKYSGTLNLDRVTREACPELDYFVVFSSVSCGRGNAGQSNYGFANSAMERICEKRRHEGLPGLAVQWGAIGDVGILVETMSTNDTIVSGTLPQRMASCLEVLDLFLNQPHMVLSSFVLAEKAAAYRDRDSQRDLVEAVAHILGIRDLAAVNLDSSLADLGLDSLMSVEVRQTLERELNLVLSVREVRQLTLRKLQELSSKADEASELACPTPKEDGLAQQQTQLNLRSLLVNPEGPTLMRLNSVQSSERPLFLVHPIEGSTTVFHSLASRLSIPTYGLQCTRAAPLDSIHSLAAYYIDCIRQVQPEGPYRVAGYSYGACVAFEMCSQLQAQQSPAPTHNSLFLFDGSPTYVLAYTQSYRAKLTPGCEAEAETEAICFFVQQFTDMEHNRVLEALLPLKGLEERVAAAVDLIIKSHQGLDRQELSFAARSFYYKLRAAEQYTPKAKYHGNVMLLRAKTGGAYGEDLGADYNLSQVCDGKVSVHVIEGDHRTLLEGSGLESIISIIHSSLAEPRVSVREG
T4 sequence (P11940 whole entry): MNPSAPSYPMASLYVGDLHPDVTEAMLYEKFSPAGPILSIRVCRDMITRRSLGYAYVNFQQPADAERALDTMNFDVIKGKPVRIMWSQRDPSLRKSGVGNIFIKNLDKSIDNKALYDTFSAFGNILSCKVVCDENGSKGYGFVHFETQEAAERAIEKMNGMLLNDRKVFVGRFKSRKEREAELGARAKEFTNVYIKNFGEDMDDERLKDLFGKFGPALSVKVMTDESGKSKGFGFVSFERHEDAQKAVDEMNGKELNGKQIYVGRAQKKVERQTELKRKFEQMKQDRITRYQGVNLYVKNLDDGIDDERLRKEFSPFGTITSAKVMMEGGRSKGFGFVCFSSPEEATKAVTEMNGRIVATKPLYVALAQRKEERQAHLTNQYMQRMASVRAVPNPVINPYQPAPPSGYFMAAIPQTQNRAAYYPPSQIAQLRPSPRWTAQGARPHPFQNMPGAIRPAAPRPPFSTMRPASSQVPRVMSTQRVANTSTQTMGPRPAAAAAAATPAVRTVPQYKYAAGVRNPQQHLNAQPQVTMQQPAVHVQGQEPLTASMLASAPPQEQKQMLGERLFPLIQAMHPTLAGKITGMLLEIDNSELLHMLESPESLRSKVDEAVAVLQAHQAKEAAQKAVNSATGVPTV

In general, EC50 refers to the concentration at which the effect is half-maximal. As usually defined, the AC50 is the midpoint of the concentration-response curve, whichever way the signal moves. Consider `N#Cc1cc(-c2ccccc2)nc(Oc2ccccc2)n1`, for which the IC50 at Fatty acid synthase [1] was 12.9 µM (active); on Fatty acid synthase [3] it was 12.2 µM (active). Also, the EC50 on Protein RecA was 17.7 µM (active). In assay [2], the AC50 was 6.79 µM (active).
Regarding `O=[N+]([O-])c1ccc(CSc2ccc(S(=O)(=O)N3CCOCC3)cn2)cc1`, the IC50 was 4.09 µM (active) at Fatty acid synthase [1], > 66 µM (inactive) in assay [4], > 66 µM (inactive) in assay [5] and 13.4 µM (active) at Fatty acid synthase [3].
Take `C[C@H]1CN([C@@H](C)CO)C(=O)c2cccc(NS(=O)(=O)c3ccc(Cl)cc3)c2O[C@@H]1CN(C)Cc1ccc(C(F)(F)F)cc1`: the half-maximal activity concentration (AC50) in assay [6] is 29 µM (active).
Still for that read-out and setting: with `COc1ccc2c3c(n(C)c2c1)[C@@H](CO)N(C(=O)Nc1ccc(F)cc1)CC31CCN(Cc2cccc(F)c2)CC1` the figure was < 0.26 µM (active).
